Measurements from patent publication US20200361895A1, “NOVEL SULFONAMIDE CARBOXAMIDE COMPOUNDS” (Inflazome Limited, priority 2017, published 2020).
pIC50: −log10 of the molar value. Counter-ions that a name gives are not always drawn.

Experiments:
NLRP3 [1] = biological target: T1, NLRP3 (Homo sapiens, UniProt Q96P20); assay: Human whole blood IL1β release assay (LPS + nigericin, AlphaLisa IL-1β; HWB IC50); type: cell-based; parameters: Human whole blood in Li-heparin tubes was obtained from healthy donors from a volunteer donor panel; from tissue; host or cells: human whole blood from healthy donors; conditions: IL-1β release
Procedure: For systemic delivery, the ability to inhibit NLRP3 when the compounds are present within the bloodstream is of great importance. For this reason, the NLRP3 inhibitory activity of a number of compounds in human whole blood was investigated in accordance with the following protocol.
Human whole blood in Li-heparin tubes was obtained from healthy donors from a volunteer donor panel. • 1. Plate out 80 μl of whole blood containing 1 μg/ml of LPS in 96-well, clear bottom cell culture plate (Corning #3585) • 2. Add 10 μl compound (8 points half-log dilution with 10 μM top dose) or vehicle (DMSO 0.1% FAC) to the appropriate wells • 3. Incubate for 3 hrs at 37° C., 5% CO2 • 4. Add 10 μl nigericin (Sigma #N7143) (10 μM FAC) to all wells • 5. Incubate for 1 hr at 37° C., 5% CO2 • 6. At the end of the incubation period, spin plates at 300×g for 5 mins to pellet cells and remove 20 μl of supernatant and add to 96-well v-bottom plates for IL-1β analysis (note: these plates containing the supernatants can be stored at −80° C. to be analysed at a later date) • 7. IL-1β was measured according to the manufacturer protocol (Perkin Elmer-AlphaLisa IL-1 Kit AL220F-5000) • 8. IC50 data is fitted to a non-linear regression equation (log inhibitor vs response-variable slope 4-parameters)

NLRP3 [2] = biological target: T1, NLRP3; assay: THP-1 cells pyroptosis assay (LPS + nigericin, resazurin readout; THP IC50); type: cell-based; parameters: Seed THP-1 cells (25,000 cells/well) containing 1.0 μg/ml LPS in 40 μl of RPMI medium; host or cells: THP-1 cells
Procedure, shortened: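 Human THP-1 cells, 25,000/well in serum-free RPMI with 1 μg/ml LPS, treated 3 hrs at 37° C with compound (8-point half-log, 10 μM top, 0.1% DMSO), then 5 μM nigericin 1 hr. Viability by 100 μM resazurin fluorescence after 1-2 hrs; IC50 by 4-parameter fit.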

T1 sequence (Q96P20 whole entry): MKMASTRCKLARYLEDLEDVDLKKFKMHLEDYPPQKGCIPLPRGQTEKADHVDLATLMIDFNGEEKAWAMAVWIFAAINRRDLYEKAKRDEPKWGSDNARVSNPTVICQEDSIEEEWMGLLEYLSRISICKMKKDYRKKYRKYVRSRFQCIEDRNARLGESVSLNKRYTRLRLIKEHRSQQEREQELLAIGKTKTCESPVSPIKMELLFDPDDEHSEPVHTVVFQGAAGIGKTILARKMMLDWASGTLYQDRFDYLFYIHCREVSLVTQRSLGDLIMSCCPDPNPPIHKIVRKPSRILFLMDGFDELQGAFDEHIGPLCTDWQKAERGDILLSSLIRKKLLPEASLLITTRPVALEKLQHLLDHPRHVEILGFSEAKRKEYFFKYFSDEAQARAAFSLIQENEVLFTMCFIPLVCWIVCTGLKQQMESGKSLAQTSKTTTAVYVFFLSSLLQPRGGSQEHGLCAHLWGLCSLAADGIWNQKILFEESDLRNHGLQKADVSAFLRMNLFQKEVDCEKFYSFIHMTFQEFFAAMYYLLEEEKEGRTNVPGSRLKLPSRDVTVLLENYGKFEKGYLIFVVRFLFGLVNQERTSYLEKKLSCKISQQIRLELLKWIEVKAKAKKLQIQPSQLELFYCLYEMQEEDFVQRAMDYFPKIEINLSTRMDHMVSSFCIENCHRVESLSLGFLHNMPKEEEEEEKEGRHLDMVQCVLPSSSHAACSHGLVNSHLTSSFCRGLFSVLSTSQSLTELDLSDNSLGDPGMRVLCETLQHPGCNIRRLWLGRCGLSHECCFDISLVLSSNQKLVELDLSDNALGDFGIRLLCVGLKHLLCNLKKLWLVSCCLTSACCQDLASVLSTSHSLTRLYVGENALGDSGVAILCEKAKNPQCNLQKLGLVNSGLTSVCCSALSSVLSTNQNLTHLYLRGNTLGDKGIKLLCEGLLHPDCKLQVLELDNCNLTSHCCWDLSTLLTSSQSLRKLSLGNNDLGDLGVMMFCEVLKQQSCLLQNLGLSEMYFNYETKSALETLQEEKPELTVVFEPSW

Compound	pIC50 (NLRP3 [1])	pIC50 (NLRP3 [2])
CC(C)Oc1cc(-c2cc(F)cc(C(C)C)c2NC(=O)NS(=O)(=O)c2ccn(C(C)C)n2)ccn1 [Example 27, N-((4-Fluoro-2-(2-isopropoxypyridin-4-yl)-6-iso-propyl-phenyl)carbamoyl)-1-iso-propyl-1H-pyrazole-3-sulfonamide]	≥ 5.30	≥ 6.30
COC(C)(C)c1cc(S(=O)(=O)NC(=O)Nc2c(-c3cccnc3)cc(F)cc2C(C)C)nn1C [Example 35, N-((4-Fluoro-2-iso-propyl-6-(pyridin-3-yl)phenyl)carbamoyl)-5-(2-methoxypropan-2-yl)-1-methyl-1H-pyrazole-3-sulfonamide]	≥ 6.00	≥ 6.30
CC(C)c1cc(F)cc(-c2cccc(C#N)c2)c1NC(=O)NS(=O)(=O)c1cc(CN(C)C)n(C(C)C)n1 [Example 39, N-((3′-Cyano-5-fluoro-3-iso-propyl-[1,1′-biphenyl]-2-yl)carbamoyl)-5-((dimethylamino)methyl)-1-isopropyl-1H-pyrazole-3-sulfonamide]	≥ 6.00	≥ 6.00
CC(C)c1cc(F)cc(-c2ccccc2)c1NC(=O)NS(=O)(=O)c1cc(CN(C)C)n(C)n1 [Example 40, 5-((Dimethylamino)methyl)-N-((5-fluoro-3-iso-propyl-[1,1′-biphenyl]-2-yl)carbamoyl)-1-methyl-1H-pyrazole-3-sulfonamide]	≥ 6.00	≥ 6.30
CC(C)c1cc(F)cc(-c2cccnc2)c1NC(=O)NS(=O)(=O)c1cc(CN(C)C)n(C(C)C)n1 [Example 41, 5-((Dimethylamino)methyl)-N-((4-fluoro-2-iso-propyl-6-(pyridin-3-yl)phenyl)carbamoyl)-1-iso-propyl-1H-pyrazole-3-sulfonamide]	≥ 6.00	≥ 6.30
CC(C)c1cc(F)cc(-c2ccccc2)c1NC(=O)NS(=O)(=O)c1cc(CN(C)C)n(C(C)C)n1 [Example 46, 5-((Dimethylamino)methyl)-N-((5-fluoro-3-isopropyl-[1,1′-biphenyl]-2-yl)carbamoyl)-1-isopropyl-1H-pyrazole-3-sulfonamide]	≥ 5.30	≥ 6.00
COc1cc(-c2cc(F)cc(C(C)C)c2NC(=O)NS(=O)(=O)c2cn(C(C)C)cn2)ccn1 [Example 53, N-((4-Fluoro-2-isopropyl-6-(2-methoxypyridin-4-yl)phenyl)carbamoyl)-1-isopropyl-1H-imidazole-4-sulfonamide]	≥ 5.30	≥ 6.30
CC(C)c1cc(F)cc(-c2cccnc2)c1NC(=O)NS(=O)(=O)c1ccn(CCN(C)C)n1 [Example 57, 1-(2-(Dimethylamino)ethyl)-N-((4-fluoro-2-isopropyl-6-(pyridin-3-yl)phenyl)carbamoyl)-1H-pyrazole-3-sulfonamide]	≥ 6.00	≥ 6.00
COC1(c2cc(S(=O)(=O)NC(=O)Nc3c(-c4cccnc4)cc(F)c4c3CCC4)nn2C)COC1 [Example 59, N-((7-Fluoro-5-(pyridin-3-yl)-2,3-dihydro-1H-inden-4-yl)carbamoyl)-5-(3-methoxyoxetan-3-yl)-1-methyl-1H-pyrazole-3-sulfonamide]	≥ 6.00	≥ 6.30
CN(C)CCn1ccc(S(=O)(=O)NC(=O)Nc2c(-c3cccnc3)cc(F)c3c2CCC3)n1 [Example 62, 1-(2-(Dimethylamino)ethyl)-N-((7-fluoro-5-(pyridin-3-yl)-2,3-dihydro-1H-inden-4-yl)carbamoyl)-1H-pyrazole-3-sulfonamide]	≥ 5.30	≥ 6.30
CCn1nc(S(=O)(=O)NC(=O)Nc2c(-c3cccc(C#N)c3)ccc3c2CCC3)cc1CN(C)C [Example 68, N-((5-(3-Cyanophenyl)-2,3-dihydro-1H-inden-4-yl)carbamoyl)-5-((dimethylamino)methyl)-1-ethyl-1H-pyrazole-3-sulfonamide]	≥ 6.00	≥ 6.30
CC(C)n1cc(S(=O)(=O)NC(=O)Nc2c(-c3ccnc(C#N)c3)ccc3c2CCC3)ccc1=O [Example 71, N-((5-(2-Cyanopyridin-4-yl)-2,3-dihydro-1H-inden-4-yl)carbamoyl)-1-isopropyl-6-oxo-1,6-dihydropyridine-3-sulfonamide, sodium salt]	≥ 6.00	≥ 6.30

The remaining lines, values ahead:

pIC50 (NLRP3 [1])	pIC50 (NLRP3 [2])	Compound
≥ 6.00	≥ 6.30	COc1cc(-c2cc(F)cc(C(C)C)c2NC(=O)NS(=O)(=O)c2ccn(C(C)C)n2)ccn1 [Example 12, N-((4-Fluoro-2-iso-propyl-6-(2-methoxypyridin-4-yl)phenyl)carbamoyl)-1-iso-propyl-1H-pyrazole-3-sulfonamide, partial ammonium salt]
≥ 6.00	≥ 6.30	CC(C)c1cc(F)cc(-c2ccnc(N)c2)c1NC(=O)NS(=O)(=O)c1ccn(C(C)C)n1 [Example 23, N-((2-(2-Aminopyridin-4-yl)-4-fluoro-6-isopropylphenyl)carbamoyl)-1-iso-propyl-1H-pyrazole-3-sulfonamide]
≥ 6.00	≥ 6.30	CCOc1cc(-c2cc(F)cc(C(C)C)c2NC(=O)NS(=O)(=O)c2ccn(C(C)C)n2)ccn1 [Example 24, N-((2-(2-Ethoxypyridin-4-yl)-4-fluoro-6-iso-propylphenyl)carbamoyl)-1-iso-propyl-1H-pyrazole-3-sulfonamide]
≥ 6.30	≥ 6.30	CC(C)c1cc(F)cc(-c2cncnc2)c1NC(=O)NS(=O)(=O)c1cc(C(=O)N(C)C)n(C)n1 [Example 32, 3-(N-((4-Fluoro-2-iso-propyl-6-(pyrimidin-5-yl)phenyl)carbamoyl)sulfamoyl)-N,N,1-trimethyl-1H-pyrazole-5-carboxamide, sodium salt]
≥ 6.30	≥ 6.30	CC(C)c1cc(F)cc(-c2ccnc(C#N)c2)c1NC(=O)NS(=O)(=O)c1cc(CN(C)C)n(C)n1 [Example 48, N-((2-(2-Cyanopyridin-4-yl)-4-fluoro-6-isopropylphenyl)carbamoyl)-5-((dimethylamino)methyl)-1-methyl-1H-pyrazole-3-sulfonamide]
≥ 6.30	≥ 6.30	CCn1nc(S(=O)(=O)NC(=O)Nc2c(-c3ccnc(C#N)c3)cc(F)cc2C(C)C)cc1CN(C)C [Example 49, N-((2-(2-Cyanopyridin-4-yl)-4-fluoro-6-isopropylphenyl)carbamoyl)-5-((dimethylamino)methyl)-1-ethyl-1H-pyrazole-3-sulfonamide]
≥ 6.30	≥ 6.30	COc1cc(-c2cc(F)cc(C(C)C)c2NC(=O)NS(=O)(=O)c2cc(C3(OC)COC3)n(C)n2)ccn1 [Example 52, N-((4-Fluoro-2-isopropyl-6-(2-methoxypyridin-4-yl)phenyl)carbamoyl)-5-(3-methoxyoxetan-3-yl)-1-methyl-1H-pyrazole-3-sulfonamide]
≥ 6.30	≥ 6.30	COc1cc(-c2ccc3c(c2NC(=O)NS(=O)(=O)c2ccn(C(C)C)n2)CCC3)ccn1 [Example 56, 1-Isopropyl-N-((5-(2-methoxypyridin-4-yl)-2,3-dihydro-1H-inden-4-yl)carbamoyl)-1H-pyrazole-3-sulfonamide]
≥ 6.30	≥ 6.30	CCN(CC)CCCS(=O)(=O)NC(=O)Nc1c(-c2cccnc2)cc(F)cc1C(C)C [Example 58, 3-(Diethylamino)-N-((4-fluoro-2-isopropyl-6-(pyridin-3-yl)phenyl)carbamoyl)propane-1-sulfonamide]
≥ 6.30	≥ 6.30	COc1cc(-c2cc(F)c3c(c2NC(=O)NS(=O)(=O)c2ccn(CCN(C)C)n2)CCC3)ccn1 [Example 63, 1-(2-(Dimethylamino)ethyl)-N-((7-fluoro-5-(2-methoxypyridin-4-yl)-2,3-dihydro-1H-inden-4-yl)carbamoyl)-1H-pyrazole-3-sulfonamide]
≥ 6.30	≥ 6.30	CCn1nc(S(=O)(=O)NC(=O)Nc2c(-c3cccnc3)cc(F)c3c2CCC3)cc1CN(C)C [Example 65, 5-((Dimethylamino)methyl)-1-ethyl-N-((7-fluoro-5-(pyridin-3-yl)-2,3-dihydro-1H-inden-4-yl)carbamoyl)-1H-pyrazole-3-sulfonamide]
≥ 6.30	≥ 6.30	CCn1nc(S(=O)(=O)NC(=O)Nc2c(-c3ccnc(OC)c3)cc(F)c3c2CCC3)cc1CN(C)C [Example 66, 5-((Dimethylamino)methyl)-1-ethyl-N-((7-fluoro-5-(2-methoxypyridin-4-yl)-2,3-dihydro-1H-inden-4-yl)carbamoyl)-1H-pyrazole-3-sulfonamide]
≥ 6.30	≥ 6.30	COc1cc(-c2ccc3c(c2NC(=O)NS(=O)(=O)c2ccc(=O)n(C(C)C)c2)CCC3)ccn1 [Example 70, 1-Isopropyl-N-((5-(2-methoxypyridin-4-yl)-2,3-dihydro-1H-inden-4-yl)carbamoyl)-6-oxo-1,6-dihydropyridine-3-sulfonamide]
